Results from US9567280B2, “Preparation of hop acids and their derivatives” (MillerCoors LLC, priority 2010, dated 2017).
Entries after “also recorded” stand apart in the source; their conditions may differ.

How the values were obtained:
[1] = Bitterness perception in aqueous 5% v/v ethanol/H2O solution; conditions: 6 ppm in 5% ethanol/H2O
Excerpt: An aqueous 5% v/v ethanol/H2O solution was spiked with 6 ppm of THICO I, II, and III.

[2] = Sensory evaluation of unhopped lagers spiked with THICO
Excerpt: Two sets of unhopped lagers (A and B) were spiked with 6 ppm and 13 ppm of THICO I, II, and III, respectively.
The other two beers were noted as being similar with initial intense bitterness that diminished slowly with slight lingering bitterness.

Pediococcus damnosus [3] = test: Minimum inhibitory concentration (MIC) in modified BMB without Tween 80 culture medium; format: cell-based; set-up: key to Growth of beer spoilage bacteria: + = Growth of beer spoilage bacteria; − = No growth of beer spoilage bacteria; +/− = Partial inhibition of bacterial growth; conditions: for Growth of beer spoilage bacteria: hop acids in 70% ethanol; for Minimum inhibitory concentration (MIC): concentration at which no bacteria were detected
Protocol: (§1) The antimicrobial effect of three molecules was tested on Pediococcus damnosus and Lactobacillus brevis with two methods (MIC and BZI). MIC was determined based on the concentration at which no bacteria were detected in the modified BMB without Tween 80 culture medium. […] The average diameters of the zones of bacterial inhibition in Universal Beer Agar (UBA) produced by the filter paper disks immersed in 4000 ppm of THICO I, II, and III in 70% ethanol/water are shown in Table 5. Zone diameters increased with the same rates for three molecules on two different organisms (Pediococcus damnosus and Lactobacillus brevis) indicate that all molecules have the same antibacterial effectiveness. No enantioselective antibacterial interactions between THICO I, II, III and the microbial occur.

Pediococcus damnosus [4] = test: Bacterial zone of inhibition (BZI), filter paper disks on Universal Beer Agar; format: cell-based; conditions: disks immersed in 4000 ppm in 70% ethanol/water
Protocol: as §1

Lactobacillus brevis = test: as above; format: cell-based; conditions: disks immersed in 4000 ppm in 70% ethanol/water
Protocol: as §1

[5] = set A: unhopped lager spiked with 6 ppm

(+)-cis- and (−)-trans-THICO [THICO I]
Bitterness intensity (rank order) [1]: THICO II>(±)-THICO III>THICO I | Sensory evaluation of bitterness in beer [2, 5]: a little more initial bitterness | Growth of beer spoilage bacteria (Pediococcus damnosus [3]; 0.5 ppm): + | Growth of beer spoilage bacteria (Pediococcus damnosus [3]; 1 ppm): + | Growth of beer spoilage bacteria (Pediococcus damnosus [3]; 2 ppm): + | Growth of beer spoilage bacteria (Pediococcus damnosus [3]; 4 ppm): + | Growth of beer spoilage bacteria (Pediococcus damnosus [3]; 8 ppm): + | Growth of beer spoilage bacteria (Pediococcus damnosus [3]; 16 ppm): +/− | Growth of beer spoilage bacteria (Pediococcus damnosus [3]; 32 ppm): − | Growth of beer spoilage bacteria (Pediococcus damnosus [3]; 64 ppm): − | Growth of beer spoilage bacteria (Pediococcus damnosus [3]; 128 ppm): − | Minimum inhibitory concentration (MIC) (Pediococcus damnosus [3]): 16 ppm | Diameter of Bacterial Zone of Inhibition (Pediococcus damnosus [4]): 11.5 mm | Diameter of Bacterial Zone of Inhibition (Lactobacillus brevis): 26 mm

(±)-cis- and (±)-trans-tetrahydroisocohumulones [THICO III]
Bitterness (bitter perception) [1]: smooth and milder than the others; also recorded: smooth, milder, clean | Bitterness intensity (rank order) [1]: II>III>I | Bitterness (bitter perception) ([1]; listed as (±)-THICO III): milder and smooth bitterness than THICO I; also recorded: smooth, clean and milder than I and II | Bitterness intensity (rank order) ([1]; listed as (±)-THICO III): THICO II>(±)-THICO III>THICO I | Sensory evaluation of bitterness in beer [2, 5]: diminished quickly | Diameter of Bacterial Zone of Inhibition (Pediococcus damnosus [4]): 12 mm | Diameter of Bacterial Zone of Inhibition (Lactobacillus brevis): 22.5 mm

(−)-cis- and (+)-trans-tetrahydro isocohumulone [THICO II]
Bitterness intensity (rank order) [1]: THICO II>(±)-THICO III>THICO I | Sensory evaluation of bitterness in beer [2, 5]: the most bitterness and longest lingering | Sensory evaluation of bitterness in beer ([2]; set A: unhopped lager spiked with 6 ppm, listed as THCO II): the strongest initial bitterness and lingered the longest | Sensory evaluation of bitterness in beer ([2]; set B: unhopped lager spiked with 13 ppm): strong initial bitterness that increased (described as late bitterness) and also lingered | Growth of beer spoilage bacteria (Pediococcus damnosus [3]; 0.5 ppm): + | Growth of beer spoilage bacteria (Pediococcus damnosus [3]; 1 ppm): + | Growth of beer spoilage bacteria (Pediococcus damnosus [3]; 2 ppm): + | Growth of beer spoilage bacteria (Pediococcus damnosus [3]; 4 ppm): + | Growth of beer spoilage bacteria (Pediococcus damnosus [3]; 8 ppm): + | Growth of beer spoilage bacteria (Pediococcus damnosus [3]; 16 ppm): +/− | Growth of beer spoilage bacteria (Pediococcus damnosus [3]; 32 ppm): − | Growth of beer spoilage bacteria (Pediococcus damnosus [3]; 64 ppm): − | Growth of beer spoilage bacteria (Pediococcus damnosus [3]; 128 ppm): − | Minimum inhibitory concentration (MIC) (Pediococcus damnosus [3]): 16 ppm | Diameter of Bacterial Zone of Inhibition (Pediococcus damnosus [4]): 12 mm | Diameter of Bacterial Zone of Inhibition (Lactobacillus brevis): 26.5 mm
